From patent US20230027854A1, “ISOXAZOLE DERIVATIVES TARGETING TACC3 AS ANTICANCER AGENTS” (A2A Pharmaceuticals, inc., priority 2019, published 2023)

Each compound was assayed on JIMT-1 cells (assay: JIMT-1 cell growth inhibition / cell viability (SRB assay)). Conditions: Homo sapiens; JIMT-1 cells; read-out: IC50.
Format: cell-based
Experimental: The ability of the compounds of the present disclosure to treat TACC3-mediated cancers, or associated symptoms or complications thereof, was determined using the following procedures. The compounds of the present disclosure were tested for their activity against cell death induction using a JIMT-1 cell line, which was a cell line having high level of TACC3. The concentration of each compound that was required for half-maximal inhibition of cell proliferation was calculated by a GraphPad Prism (GraphPad Software).

First: CC(C)c1ccc(-c2cc(Nc3ccnc(N4CCOCC4)n3)on2)cc1 [Compound 15, 3-(4-isopropylphenyl)-N-(2-morpholinopyrimidin-4-yl)isoxazol-5-amine]
Second: Cc1ccc(-c2cc(Nc3ccnc(N4CCOCC4)n3)on2)cc1 [Compound 13, N-(2-morpholinopyrimidin-4-yl)-3-(p-tolyl)isoxazol-5-amine]
The IC50 of the first is 5.6-fold higher: 3610 nM for the first, 640 nM for the second. The second is the more potent here.

First: COc1ccc(-c2cc(Nc3ccnc(N4CCN(CCO)CC4)n3)on2)cc1 [Compound 47, 2-(4-(4-((3-(4-methoxyphenyl)isoxazol-5-yl)amino)pyrimidin-2-yl)piperazin-1-yl)ethan-1-ol]
Second: COc1ccc(-c2cc(Nc3ccnc(N4CCC(CCO)CC4)n3)on2)cc1 [Compound 46, 2-(1-(4-((3-(4-methoxyphenyl)isoxazol-5-yl)amino)pyrimidin-2-yl)piperidin-4-yl)ethan-1-ol]
The IC50 of the first is higher: greater than 10000 nM for the first, 3970 nM for the second.

Going from `COc1ccc(-c2cc(Nc3ccnc(N4CCC(F)(F)CC4)n3)on2)cc1` [Compound 39, N-(2-(4,4-difluoropiperidin-1-yl)pyrimidin-4-yl)-3-(4-methoxyphenyl)isoxazol-5-amine] to `COc1ccc(-c2cc(Nc3ccnc(N4CCCC4)n3)on2)cc1` [Compound 45, 3-(4-methoxyphenyl)-N-(2-(pyrrolidin-1-yl)pyrimidin-4-yl)isoxazol-5-amine], the IC50 falls from 370 nM to 105 nM (3.5-fold). The second is the more potent here.

Going from `c1ccc(-c2cc(Nc3ccnc(N4CCOCC4)n3)on2)cc1` [Compound 8, N-(2-morpholinopyrimidin-4-yl)-3-phenylisoxazol-5-amine] to `COc1cccc(-c2cc(Nc3ccnc(N4CCOCC4)n3)on2)c1` [Compound 6, 3-(3-methoxyphenyl)-N-(2-morpholinopyrimidin-4-yl)isoxazol-5-amine], the IC50 falls from greater than 10000 nM to 3440 nM. The second is the more potent here.

Compared with `COc1ccc(-c2cc(Nc3ccnc(N4C[C@@H]5C[C@H]4CO5)n3)on2)cc1` [Compound 36, N-(2-((1S,4S)-2-oxa-5-azabicyclo[2.2.1]heptan-5-yl)pyrimidin-4-yl)-3-(4-methoxyphenyl)isoxazol-5-amine], `COc1ccc(-c2cc(Nc3ccnc(N4C[C@H]5C[C@@H]4CO5)n3)on2)cc1` [Compound 37, N-(2-((1R,4R)-2-oxa-5-azabicyclo[2.2.1]heptan-5-yl)pyrimidin-4-yl)-3-(4-methoxyphenyl)isoxazol-5-amine] is 4.2-fold lower in IC50: 2020 nM for the first, 480 nM for the second. The second is the more potent here.

First: CSc1ccc(-c2cc(Nc3ccnc(N4CCOCC4)n3)on2)cc1 [Compound 20, 3-(4-(methylthio)phenyl)-N-(2-morpholinopyrimidin-4-yl)isoxazol-5-amine]
Second: CCc1ccc(-c2cc(Nc3ccnc(N4CCOCC4)n3)on2)cc1 [Compound 14, 3-(4-ethylphenyl)-N-(2-morpholinopyrimidin-4-yl)isoxazol-5-amine]
The IC50 of the first is 8.6-fold lower: 30 nM for the first, 259 nM for the second.

`COc1ccc(-c2cc(Nc3ccnc(N4CCC(F)CC4)n3)on2)cc1F` [Compound 65, 3-(3-fluoro-4-methoxyphenyl)-N-(2-(4-fluoropiperidin-1-yl)pyrimidin-4-yl)isoxazol-5-amine] and `COc1ccc(-c2cc(Nc3ccnc(N4CCC(F)CC4)n3)on2)cc1` [Compound 38, N-(2-(4-fluoropiperidin-1-yl)pyrimidin-4-yl)-3-(4-methoxyphenyl)isoxazol-5-amine] are within 1.5-fold of each other in IC50: 145 nM for the first, 130 nM for the second.

Going from `COc1ccc(-c2cc(Nc3ccnc(N4CC5CCC(C4)O5)n3)on2)cc1` [Compound 35, N-(2-(8-oxa-3-azabicyclo[3.2.1]octan-3-yl)pyrimidin-4-yl)-3-(4-methoxyphenyl)isoxazol-5-amine] to `COc1ccc(-c2cc(Nc3ccnc(N4C[C@@H](C)O[C@@H](C)C4)n3)on2)cc1` [Compound 33, N-(2-((2R,6S)-2,6-dimethylmorpholino)pyrimidin-4-yl)-3-(4-methoxyphenyl)isoxazol-5-amine], the IC50 falls from 3090 nM to 230 nM (13-fold). The second is the more potent here.

`COc1ccc(-c2cc(Nc3ccnc(N4CCS(=O)(=O)CC4)n3)on2)cc1` [Compound 41, 4-(4-((3-(4-methoxyphenyl)isoxazol-5-yl)amino)pyrimidin-2-yl)thiomorpholine 1,1-dioxide] and `COc1ccc(-c2cc(Nc3ccnc(N4CCNCC4)n3)on2)cc1` [Compound 49, 3-(4-methoxyphenyl)-N-(2-(piperazin-1-yl)pyrimidin-4-yl)isoxazol-5-amine] cannot be ordered by IC50: greater than 10000 nM for the first, greater than 10000 nM for the second.

`COc1ccc(-c2cc(Nc3nc(N4CCC(F)CC4)ncc3F)on2)cc1` [Compound 60, N-(5-fluoro-2-(4-fluoropiperidin-1-yl)pyrimidin-4-yl)-3-(4-methoxyphenyl)isoxazol-5-amine] and `COc1ccc(-c2cc(Nc3nc(N4CCC(F)CC4)ncc3Cl)on2)cc1` [Compound 59, N-(5-chloro-2-(4-fluoropiperidin-1-yl)pyrimidin-4-yl)-3-(4-methoxyphenyl)isoxazol-5-amine] are within 1.5-fold of each other in IC50: 540 nM for the first, 800 nM for the second.

`CC(F)(F)c1ccc(-c2cc(Nc3ccnc(N4CCOCC4)n3)on2)cc1` [Compound 17, 3-(4-(1,1-difluoroethyl)phenyl)-N-(2-morpholinopyrimidin-4-yl)isoxazol-5-amine] and `FC(F)(F)Oc1ccc(-c2cc(Nc3ccnc(N4CCOCC4)n3)on2)cc1` [Compound 19, N-(2-morpholinopyrimidin-4-yl)-3-(4-(trifluoromethoxy)phenyl)isoxazol-5-amine] cannot be ordered by IC50: greater than 10000 nM for the first, greater than 10000 nM for the second.

`CCOC(=O)C1CCN(c2nccc(Nc3cc(-c4ccc(OC)cc4)no3)n2)CC1` [Compound 50, Ethyl 1-(4-((3-(4-methoxyphenyl)isoxazol-5-yl)amino)pyrimidin-2-yl)piperidine-4-carboxylate] and `COc1ccc(-c2cc(Nc3ccnc(N4CCC(C(=O)O)CC4)n3)on2)cc1` [Compound 51, 1-(4-((3-(4-methoxyphenyl)isoxazol-5-yl)amino)pyrimidin-2-yl)piperidine-4-carboxylic acid] cannot be ordered by IC50: greater than 10000 nM for the first, greater than 10000 nM for the second.

Compared with `CCOc1ccc(-c2cc(Nc3ccnc(N4CCOCC4)n3)on2)cc1` [Compound 9, 3-(4-ethoxyphenyl)-N-(2-morpholinopyrimidin-4-yl)isoxazol-5-amine], `CCCOc1ccc(-c2cc(Nc3ccnc(N4CCOCC4)n3)on2)cc1` [Compound 10, N-(2-morpholinopyrimidin-4-yl)-3-(4-propoxyphenyl)isoxazol-5-amine] is higher in IC50: 810 nM for the first, greater than 10000 nM for the second. The first is the more potent here.

`COc1ccc(-c2cc(Nc3ccnc(N4CCC(C)CC4)n3)on2)cc1` [Compound 43, 3-(4-methoxyphenyl)-N-(2-(4-methylpiperidin-1-yl)pyrimidin-4-yl)isoxazol-5-amine] and `COc1ccc(-c2cc(Nc3ccnc(N4C5CCC4COC5)n3)on2)cc1` [Compound 34, N-(2-(3-oxa-8-azabicyclo[3.2.1]octan-8-yl)pyrimidin-4-yl)-3-(4-methoxyphenyl)isoxazol-5-amine] are within 1.5-fold of each other in IC50: 204 nM for the first, 160 nM for the second.

First: COc1ccc(-c2cc(Nc3cc(C)nc(N4CCC(F)CC4)n3)on2)cc1 [Compound 61, N-(2-(4-fluoropiperidin-1-yl)-6-methylpyrimidin-4-yl)-3-(4-methoxyphenyl)isoxazol-5-amine]
Second: COc1ccc(-c2cc(Nc3ccnc(N4CCOCC4)n3)on2)cc1Cl [Compound 23, 3-(3-chloro-4-methoxyphenyl)-N-(2-morpholinopyrimidin-4-yl)isoxazol-5-amine]
The IC50 of the first is 2.1-fold higher: 1000 nM for the first, 480 nM for the second. The second is the more potent here.

In the case of `COc1ccc(-c2cc(Nc3ccnc(N4CCOCC4)n3)on2)cn1` [Compound 27, 3-(6-methoxypyridin-3-yl)-N-(2-morpholinopyrimidin-4-yl)isoxazol-5-amine], the IC50 is reported as 7300 nM.
